Like-named read-outs stand apart in the source and are kept apart here.

Experiment [1] addresses T1, LigT (Escherichia coli, UniProt Z9E1N8ZL79).
T1 construct: N-terminal His6 tag with TEV site, tag cut with TEV protease; expressed in E. coli BL21(DE3); 20 kDa; monomer in solution
The experiment can be described thus: turnover to […]′-AMP seen in crystal. In kind it is biochemical. The conditions noted are these: 0.1 M Tris-HCl pH 7.4-7.5, 0.2 M MgCl2, PEG 8000; 5 mM ligand.

Experiment [2] addresses T1, LigT. The experiment is described as follows: isothermal titration calorimetry; co-crystal structure. The format is binding. The conditions noted are these: 10 mM HEPES pH 7.5, 0.2 M NaCl, 0.1 mM TCEP, 25 °C, active site, read-out: dissociation constant. (ITC needs no label: the signal is the heat of the interaction.)

`Nc1ncnc2c1ncn2[C@@H]1O[C@H](CO)[C@H]2OP(=O)(O)O[C@H]21` [2′,3′-cAMP]: the “turnover to 2′-AMP seen in crystal” value at LigT [1] is recorded as “the reaction product is bound in the crystals grown in the presence of the substrate”.
For the compound `Nc1ncnc2c1ncn2[C@@H]1O[C@H](CO)[C@@H](O)[C@H]1OP(=O)(O)O` [2′-AMP], the Kd at LigT [2] (crystal grown with 2′,3′-cAMP) was found to be 140 µM.
Consider `Nc1ncnc2c1ncn2[C@@H]1O[C@H](CO)[C@@H](OP(=O)(O)O)[C@H]1O` [3′-AMP], for which the Kd at LigT [2] was 180 µM.
Take `Nc1ncnc2c1ncn2[C@@H]1O[C@H](COP(=O)(O)OP(=O)(O)OP(=O)(O)O)[C@@H](O)[C@H]1O` [ATP]: on LigT [2] (second crystal form 5LDP), the Kd turned out to be 70 µM.
Take `NC(=O)c1ccc[n+]([C@@H]2O[C@H](COP(=O)(O)OP(=O)(O)OC[C@H]3O[C@@H](n4cnc5c(N)ncnc54)[C@H](OP(=O)(O)O)[C@@H]3O)[C@@H](O)[C@H]2O)c1` [NADP^+]: the Kd at LigT [2] (product analogue) came out at 40 µM.

(Values after publication PMC5283653, “Structural aspects of nucleotide ligand binding by a bacterial 2H phosphoesterase” (PLoS ONE, 2017).)
